Test results as given in US20070298106A1, “Sustained Release Formulation Containing Selective Serotonin Reuptake Inhibitor and Method for the Preparation Thereof” (Amorepacific Corporation, priority 2004, published 2007).
Where a name gives a salt, the structure may show the parent alone.

Test: solubility of the drug
Type: physicochemical

solubility: 5400 µg/mL
Structure (SMILES): Fc1ccc([C@@H]2CCNC[C@H]2COc2ccc3c(c2)OCO3)cc1 [Paroxetine hydrochloride]
